Test results taken from patent EP1715059A1, “Method for the identification of possibly harmful receptor tyrosine kinase (RTK) mutations and of inhibitors or medication directed against RTK mutants” (Esbatech AG, priority 2005, dated 2006).
Counter-ions that a name gives are not always drawn. Like-named read-outs stand apart in the source and are kept apart here.

Columns and labels:
KIT mutant D816V = biological target: T1, KIT mutant D816V (Homo sapiens, UniProt P10721, D816V); test: Yeast cell-based growth rescue assay, KIT mutant; conditions: 0.2 to 100 µM; yeast strain RLY09/Δptp1; PD180970 effect at the highest concentrations
T1 construct: preferably cytoplasmic domains of RTKs or fragments thereof, are expressed in the cytoplasm of host cells; expressed in transfected cells; host or cells: S. cerevisiae RLY09/Δptp1
From the text: (§1) Expression of wild-type KIT confers only a slight slow growth phenotype in yeast (in the RLY07 strain, under the full-length GAL promoter). Various mutations that occur in human GISTs or in mastocytosis were introduced in the Kit construct expressed in yeast. Expression of the various mutants caused reduced yeast growth but in various extent, likely correlating with various extent of activity (see graphs Figures 7a and 7b) . […] The yeast strain expressing the various Kit proteins in this experiment, was […] which all the Kit proteins produce a similar slow growth phenotype (see values of the window vector/RTK). The starting OD was optimized to obtain windows as similar as possible.

KIT mutant D816F = biological target: T2, KIT mutant D816F (Homo sapiens, UniProt P10721, D816F); test: Yeast cell-based growth rescue assay, KIT mutant; conditions: 0.2 to 100 µM; yeast strain RLY09/Δptp1; PD180970 effect at the highest concentrations
T2 construct: preferably cytoplasmic domains of RTKs or fragments thereof, are expressed in the cytoplasm of host cells; expressed in transfected cells; host or cells: S. cerevisiae RLY09/Δptp1
From the text: as §1

KIT mutant D816Y = biological target: T3, KIT mutant D816Y (Homo sapiens, UniProt P10721, D816Y); test: Yeast cell-based growth rescue assay, KIT mutant; conditions: 0.2 to 100 µM; yeast strain RLY09/Δptp1; PD180970 effect at the highest concentrations
T3 construct: preferably cytoplasmic domains of RTKs or fragments thereof, are expressed in the cytoplasm of host cells; expressed in transfected cells; host or cells: S. cerevisiae RLY09/Δptp1
From the text: as §1

HMC-1 cells = conditions: literature (23); cited from earlier work
D816V mutation = D816V mutation (Homo sapiens, UniProt P10721, D816V); conditions: literature (29), cited from earlier work
[1] = patients with nonsmall cell lung cancer; cited from earlier work
PDGFR-β = test: Yeast growth assay, selection of specific RTK inhibition (OD 600 nm); assay type: cell-based, human; conditions: 50 µM in the yeast culture
From the text: (§2) Selection of specific inhibition of Receptor Tyrosine Kinase activity in yeast.

HMC1.1 = conditions: human cell line HMC1.1 expressing V560G mutation; literature (29); cited from earlier work
N822H = N822H (Homo sapiens, UniProt P10721, N822H); conditions: like wt KIT, literature (25); cited from earlier work
K642E = K642E (Homo sapiens, UniProt P10721, K642E); conditions: like wt KIT, literature (25); cited from earlier work
RET = biological target: T4, RET (Homo sapiens, UniProt P07949); test: Yeast growth assay, selection of specific RTK inhibition (OD 600 nm); assay type: cell-based; conditions: 50 µM in the yeast culture
T4 construct: preferably cytoplasmic domains of RTKs or fragments thereof, are expressed in the cytoplasm of host cells; expressed in transfected cells; host or cells: yeast (S. cerevisiae)
T4 sequence (P07949 658-1114 limits assumed): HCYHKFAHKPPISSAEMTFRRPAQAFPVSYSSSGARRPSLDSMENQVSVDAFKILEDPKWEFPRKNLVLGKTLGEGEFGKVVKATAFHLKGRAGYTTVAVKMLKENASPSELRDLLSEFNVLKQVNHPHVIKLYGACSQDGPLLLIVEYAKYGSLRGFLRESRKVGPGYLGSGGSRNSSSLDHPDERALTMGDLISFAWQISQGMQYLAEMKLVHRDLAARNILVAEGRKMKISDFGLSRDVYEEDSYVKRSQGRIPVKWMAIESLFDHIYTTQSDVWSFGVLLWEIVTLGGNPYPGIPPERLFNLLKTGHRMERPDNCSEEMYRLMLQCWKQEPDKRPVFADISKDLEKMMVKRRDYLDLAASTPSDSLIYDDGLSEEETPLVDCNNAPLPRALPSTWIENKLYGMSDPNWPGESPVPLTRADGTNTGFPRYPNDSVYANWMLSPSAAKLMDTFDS
From the text: as §2

D816V mutation, sequence (P10721 26-976 D816V): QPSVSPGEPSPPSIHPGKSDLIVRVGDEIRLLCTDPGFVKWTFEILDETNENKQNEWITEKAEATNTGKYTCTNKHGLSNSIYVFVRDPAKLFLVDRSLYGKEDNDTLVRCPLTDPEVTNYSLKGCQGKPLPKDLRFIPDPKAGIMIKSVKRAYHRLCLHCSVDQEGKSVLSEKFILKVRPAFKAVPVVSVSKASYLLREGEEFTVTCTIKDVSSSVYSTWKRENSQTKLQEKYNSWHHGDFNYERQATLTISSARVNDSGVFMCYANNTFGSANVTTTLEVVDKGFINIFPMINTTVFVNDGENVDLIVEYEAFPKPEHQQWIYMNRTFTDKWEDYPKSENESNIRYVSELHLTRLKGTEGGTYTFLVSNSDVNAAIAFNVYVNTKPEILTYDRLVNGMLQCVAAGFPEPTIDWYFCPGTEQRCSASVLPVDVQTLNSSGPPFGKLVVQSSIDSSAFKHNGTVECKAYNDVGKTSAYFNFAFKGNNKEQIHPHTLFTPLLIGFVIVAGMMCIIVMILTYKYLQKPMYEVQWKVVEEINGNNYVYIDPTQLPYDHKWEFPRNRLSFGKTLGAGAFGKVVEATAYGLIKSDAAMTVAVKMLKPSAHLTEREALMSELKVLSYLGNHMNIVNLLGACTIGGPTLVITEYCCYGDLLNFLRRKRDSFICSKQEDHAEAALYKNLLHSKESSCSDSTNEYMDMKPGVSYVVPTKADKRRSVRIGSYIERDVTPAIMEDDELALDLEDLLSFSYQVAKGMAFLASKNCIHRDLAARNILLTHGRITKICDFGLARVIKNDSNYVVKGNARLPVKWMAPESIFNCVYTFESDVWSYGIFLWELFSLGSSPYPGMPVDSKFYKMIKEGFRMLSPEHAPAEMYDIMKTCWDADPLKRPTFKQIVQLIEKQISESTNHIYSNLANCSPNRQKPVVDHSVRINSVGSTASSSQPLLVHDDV
T2 sequence (P10721 546-976 D816F limits assumed): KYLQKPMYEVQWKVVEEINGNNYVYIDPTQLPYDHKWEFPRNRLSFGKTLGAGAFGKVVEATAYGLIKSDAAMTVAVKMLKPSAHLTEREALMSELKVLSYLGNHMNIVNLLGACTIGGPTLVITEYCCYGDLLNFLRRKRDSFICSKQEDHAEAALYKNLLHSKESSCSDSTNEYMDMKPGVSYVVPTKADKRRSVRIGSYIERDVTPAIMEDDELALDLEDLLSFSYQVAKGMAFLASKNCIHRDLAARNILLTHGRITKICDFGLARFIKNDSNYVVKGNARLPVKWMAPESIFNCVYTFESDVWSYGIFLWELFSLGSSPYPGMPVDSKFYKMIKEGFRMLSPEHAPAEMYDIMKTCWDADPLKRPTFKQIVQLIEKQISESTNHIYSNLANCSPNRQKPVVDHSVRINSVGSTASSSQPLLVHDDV
T3 sequence (P10721 546-976 D816Y limits assumed): as the sequence (P10721 546-976 D816F limits assumed) above, with F271Y counted along it
T1 sequence (P10721 546-976 D816V limits assumed): as the sequence (P10721 546-976 D816F limits assumed) above, with F271V counted along it
K642E, sequence (P10721 26-976 K642E): as the sequence (P10721 26-976 D816V) above, with K617E, V791D counted along it
N822H, sequence (P10721 26-976 N822H): as the sequence (P10721 26-976 D816V) above, with V791D, N797H counted along it

SMILES	sensitivity of mutant D816V in yeast (growth rescue) (KIT mutant D816V)	sensitivity of mutant D816F in yeast (growth rescue) (KIT mutant D816F)	sensitivity of mutant D816Y in yeast (growth rescue) (KIT mutant D816Y)	KIT phosphorylation (HMC-1 cells)	cell proliferation (HMC-1 cells)	resistance of D816V mutant to inhibitor (D816V mutation)	patients have a rapid and often dramatic clinical response [1] [%]	restores growth of PDGFR-β-expressing yeast cells (PDGFR-β)	apoptosis (HMC1.1)	sensitive in vitro (concentration) (N822H) [nM]	sensitive in vitro (concentration) (K642E) [nM]	restores growth of cells expressing RET (RET)	resistance of D816V mutant to inhibitor (D816V mutation; listed as STI571)
Cc1cc(Nc2ncc3cc(-c4c(Cl)cccc4Cl)c(=O)n(C)c3n2)ccc1F [PD180970]	slight effect	slight effect	slight effect	inhibits	inhibits	resistant							
COc1cc2ncnc(Nc3ccc(F)c(Cl)c3)c2cc1OCCCN1CCOCC1 [gefitinib]							10						
Cc1ccc(NC(=O)c2ccc(CN3CCN(C)CC3)cc2)cc1Nc1nccc(-c2cccnc2)n1 [Gleevec, imatinib mesylate]	resistant	resistant	resistant			resistant		specifically restores growth	induce apoptosis	100 to 200	100 to 200	not growth of cells expressing RET	resistance
